Data: patent US20120276070A1, “Induced Pluripotent Stem Cells and Related Methods” (VITRO DIAGNOSITICS, INC., priority 2009, published 2012)
No end group written: not given here.

Columns and labels:
POU5F1 (Oct3/4) = POU5F1 (Oct3/4) expression after adding small molecules to the adult stem cell culture medium; type: cell-based
native human MSC = experiment: Puromycin dose-response / selection: killing of native, non-transfected human MSC; type: cell-based; conditions: 10 μg/ml puromycin in medium
Method: Human mesenchymal stem cells (Vitro Diagnostics, Inc., catalog number SC00A1) were cultured at 7500/cm^2 in T25 flasks (Greiner Bio-One catalog number 690-190) following coating at 2 μg/cm^2 with poly-L-lysine (Sigma Catalog number P1399) using low serum complete MSC cell culture medium (Vitro Diagnostics, Inc., catalog number SC00B1). Cultures were maintained here and throughout this study in a 5% O2, 5% CO2, balance N2 gas environment in a humidified chamber maintained at 37° C. Following two days of continuous culture and at about 40% confluence, the cultures were exposed to 1/15 dilution of the POU5-F1 pseudovirus stock in low serum medium containing 5 μg/ml polybrene (Sigma catalog number H9268). Following 10 hours exposure to the pseudovirus particles, the cultures were washed twice with PBS and cultured in low serum medium (Vitro SC00B1). Selection of stable transfectants began 16 hours later using 3 to 10 μg/ml puromycin (Sigma catalog number P7255) which was a sufficient concentration to kill native, non-transfected human MSC. Single colony clones were established by limited dilution cloning in 96 well plates (Greiner Bio-One, catalog number 655-160) using low serum MSC medium (Vitro Diagnostics, Inc., catalog number SC00B1) containing 10 μg/ml puromycin. […]

[1] = added to the medium at 1 to 2 mM

O=C1O[C@H]([C@@H](O)CO)C(O)=C1O [Vitamin C, ascorbic acid]
POU5F1 (Oct3/4) expression (POU5F1 (Oct3/4); added to the medium at 60 μM): increased POU5F1 (Oct3/4) expression

CCCC(=O)[O-].[Na+] [sodium butyrate]
POU5F1 (Oct3/4) expression (POU5F1 (Oct3/4); [1]): increased POU5F1 (Oct3/4) expression

C[C@]12CCC(=O)C=C1CC[C@@H]1[C@@H]2[C@@H](O)C[C@@]2(C)[C@H]1CC[C@]2(O)C(=O)CO [Hydrocortisone, hydrocortisone]
POU5F1 (Oct3/4) expression (POU5F1 (Oct3/4); added to the medium, preferably at 80 to 110 nM): increased POU5F1 (Oct3/4) expression

CCCC(CCC)C(=O)O [valproic acid]
POU5F1 (Oct3/4) expression (POU5F1 (Oct3/4); [1]): increased POU5F1 (Oct3/4) expression

Nc1ncn([C@@H]2O[C@H](CO)[C@@H](O)[C@H]2O)c(=O)n1 [5-azacytidine]
POU5F1 (Oct3/4) expression (POU5F1 (Oct3/4); added to the medium at 0.5 mM, transient periods </=48 hours): increased POU5F1 (Oct3/4) expression

gonadotropin releasing hormone (QHWSYGLRPG; ends and bridges not checked; UniProt P01148 24-33, looked up) [GnRH]
POU5F1 (Oct3/4) expression (POU5F1 (Oct3/4); added to the medium at 75 pg/ml): increased POU5F1 (Oct3/4) expression

COc1ccc(C[C@H](N)C(=O)N[C@H]2[C@@H](O)[C@H](n3cnc4c(N(C)C)ncnc43)O[C@@H]2CO)cc1 [puromycin]
effect on wild type MSCs (native human MSC): lethal
